What all share (test): NCI tumour cell line growth inhibition, 48 h
Experiment [1] deals with LXFL 529.
The test system of experiment [2] is KM-20L2.
Experiment [3] has as its system HOP-18.
Experiment [4] concerns SNB-78.
Experiment [5] has as its system DMS-273.
For experiment [6], the system named is BT-549.
Experiment [7] relates to MDA-MB-231.
Experiment [8] relates to XF498.

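Test compounds were applied to cells in 96-well plates for 48 hours at 5 doses. The concentration for 50% growth inhibition is given as GI50.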 The source made the active and inactive calls. Rule as the data show it: active = GI50 up to about 1.1 µM and inactive = higher. Bounds are passed on as bounds.

The text below walks through data of ChEMBL document CHEMBL1201862, “PubChem BioAssay data set” (2004).

On to `O=C1Sc2ccccc2C(=O)N2CCSC12` (stereo unspecified), for which the GI50 in experiment [1] is > 100 µM (inactive); in experiment [2], > 100 µM (inactive); in experiment [3], 25.6 µM (inactive); in experiment [4] it was > 100 µM (inactive); in experiment [5] it was > 100 µM (inactive).

As to `O=C(O)CNCCc1ccccc1`, the GI50 in experiment [6] and in experiment [7] was > 100 µM (inactive) in each case.

Regarding `CCOC(=O)C(O)(NC(C)=O)C(F)(F)F` (stereo unspecified), the GI50 in experiment [6] is > 100 µM (inactive).

With `COC(=O)C1=C(C(=O)OC)SC2(S1)C1=C(CCC1)SC(C(=O)OC)=C2C(=O)OC`, the GI50 was 16 µM (inactive) in experiment [6] and 18.8 µM (inactive) in experiment [7].

For the compound `CCn1nc(C)c2c1C(=O)NCC(=O)N2`, the GI50 in experiment [6] was > 100 µM (inactive).

With `O=C(c1ccccc1O)c1cc(-c2ncc3c(=O)c4ccccc4oc3n2)c(-c2ccccc2O)[nH]c1=O`, the GI50 in experiment [8] was 29.9 µM (inactive); in experiment [3], 33.3 µM (inactive); in experiment [4] it was 34.2 µM (inactive); in experiment [5] it was 26.8 µM (inactive).

Take `COc1ccc2c(c1)CC[C@@H]1[C@@H]2CC[C@]2(C)C(=O)/C(=C/c3ccc(O)c(OC)c3)C[C@@H]12`: the GI50 in experiment [7] was 37.2 µM (inactive).

Consider `Cc1ccnc(NC(=S)Nc2ccccc2Cl)c1`, for which the results for the GI50 in experiment [6] and in experiment [7] were > 100 µM (inactive) and 2.23 µM (inactive), respectively.

As for `CN1CCCOC(c2ccc([N+](=O)[O-])cc2)O1` (stereo unspecified), the GI50 in experiment [6] and in experiment [7] was > 100 µM (inactive) in each case.

As to `Clc1ccc(CCn2cncn2)cc1`, the GI50 in experiment [1], in experiment [2], in experiment [3], in experiment [4] and in experiment [5] was > 100 µM (inactive) throughout.

Regarding `CCc1nc(N)c2nc(-c3ccc(C#N)cc3)oc2n1`, the GI50 in experiment [6] and in experiment [7] was > 100 µM (inactive) in each case.

For the compound `NCc1ccccc1C1CSCSC1`, the GI50 in experiment [1], in experiment [8], in experiment [4] and in experiment [5] was > 100 µM (inactive) each time.

For the compound `CCOC(=O)c1sc2nc(SC)nc3c2c1NCN3C`, the values for the GI50 in experiment [6] and in experiment [7] were 35.7 µM (inactive) and 28.1 µM (inactive), respectively.

With `CCCC(C(=O)Nc1cccc2nc[nH]c12)C(=O)OCC` (stereo unspecified), the GI50 in experiment [6] and in experiment [7] was > 100 µM (inactive) in each case.

Turning to `CCOP(=O)(OCC)C(C)(CC)N/C(N)=N/C#N` (stereo unspecified), the GI50 in experiment [6] and in experiment [7] was > 100 µM (inactive) throughout.

As to `CCCCC1=NNC(=O)C1`, the GI50 in experiment [6] and in experiment [7] was > 100 µM (inactive) in each case.

Turning to `COC(=O)C(CC(=O)c1cc2c(cc1I)OCO2)Cc1cc(OC)c(OC)c(OC)c1I` (stereo unspecified), the GI50 in experiment [1] is 12.2 µM (inactive); in experiment [8], > 100 µM (inactive); in experiment [2], > 100 µM (inactive); in experiment [3], > 100 µM (inactive); in experiment [5], > 100 µM (inactive).

As for `COC(=O)C(C/C=C(\C)c1ccccc1)C(C)=O` (stereo unspecified), the GI50 in experiment [8] is > 80.9 µM (inactive); in experiment [2], > 100 µM (inactive); in experiment [3] it was > 100 µM (inactive); in experiment [4], > 68.5 µM (inactive); in experiment [5], > 83.9 µM (inactive).

With `Cc1ccc(NC(=O)C2C(=O)N(c3ccc(C)c(C)c3)C(=O)/C2=N\NC(N)=O)cc1C` (stereo unspecified), the GI50 was 59.7 µM (inactive) in experiment [1]; > 100 µM (inactive) in experiment [8]; > 100 µM (inactive) in experiment [2]; 7.85 µM (inactive) in experiment [3]; > 100 µM (inactive) in experiment [4].

As for `COC1OC(C(C)O)C2OC(C)(C)OC12` (stereo unspecified), the GI50 in experiment [6] and in experiment [7] was > 100 µM (inactive) in each case.

In the case of `Cc1nc2cc(/N=N/c3c(C)noc3C)ccc2[nH]1`, the GI50 in experiment [6] was 22.2 µM (inactive); in experiment [7], 28.2 µM (inactive).

In the case of `O=C(O)CCS/C(=C\C(SCCC(=O)O)c1ccc(Cl)cc1)c1ccc(Cl)cc1` (stereo unspecified), the GI50 in experiment [6] was 30.5 µM (inactive); in experiment [7] it was 71.4 µM (inactive).

For the compound `NC(CO)C(=O)NCC(=O)O` (stereo unspecified), the GI50 in experiment [6] and in experiment [7] was > 100 µM (inactive) throughout.

For the compound `CNC(=O)N(CCC#N)CCN(C(=O)NC)c1ccccc1`, the GI50 in experiment [6] and in experiment [7] was > 100 µM (inactive) throughout.

With `Cc1ccc(-c2n[nH]c(=O)n2N2C(=O)c3ccccc3C2=O)cc1`, the GI50 in experiment [6] and in experiment [7] was > 100 µM (inactive) in each case.

`O=C(Nc1ccccc1)N1CC(CN2CCN(c3ccccc3)CC2)OC1=O` (stereo unspecified): the GI50 in experiment [6] and in experiment [7] was > 100 µM (inactive) throughout.

For the compound `NC(CCCCCP(=O)(c1ccccc1)C1C=CC=CC1)C(=O)O` (stereo unspecified), the GI50 in experiment [6] and in experiment [7] was > 100 µM (inactive) in each case.

With `CC1C=CN(N(C)C)C2=C1C(=O)c1cnccc1C2=O` (stereo unspecified), the GI50 in experiment [6] was 0.355 µM (active).

`CC1(C)OC2OC(C(=O)c3ccccc3)C3OC(C)(C)OC3C2O1` (stereo unspecified): the GI50 in experiment [6] and in experiment [7] was > 100 µM (inactive) throughout.

As for `COC(=O)[C@]1(c2ccc(N(C)C)cc2OC)C[C@@H]2CCCN(CCc3c1[nH]c1ccccc31)C2`, the GI50 in experiment [8] was 18.7 µM (inactive); in experiment [2] it was 17.1 µM (inactive); in experiment [3], 24.1 µM (inactive); in experiment [4], 31 µM (inactive); in experiment [5], 20.5 µM (inactive).

In the case of `COc1cc(C2C(Cl)C(=O)N2NC(=O)c2ccc(NC(C)=O)cc2)cc(Br)c1O` (stereo unspecified), the GI50 in experiment [1] and in experiment [3] was > 100 µM (inactive) throughout.

Consider `C=CCN1C(=O)/C(=C/c2ccco2)N=C1SC1OC(COC(C)=O)C(OC(C)=O)C(OC(C)=O)C1OC(C)=O` (stereo unspecified), for which the GI50 in experiment [6] and in experiment [7] was > 100 µM (inactive) each time.

Regarding `COc1ccc(-c2c(C(C)=O)c(C)n(C3OC(CO)C(O)C(O)C3O)c(=S)c2C#N)cc1` (stereo unspecified), the GI50 in experiment [6] and in experiment [7] was > 100 µM (inactive) each time.

As to `COc1ccc(C[C@@H]2OC3(C=CC(=O)CC3Sc3ccccc3)O[C@H]2Cc2ccc(OC)cc2)cc1` (stereo partly specified), the GI50 was 0.223 µM (active) in experiment [6] and 2.5 µM (inactive) in experiment [7].

Consider `O=C1C[C@@]23CCC4(CC2CCC[C@H]3O1)OCCO4` (stereo partly specified), for which, in experiment [7], the GI50 is > 100 µM (inactive).

Regarding `CC(=O)Nc1ccc(/C=C(\NC(=O)c2ccccc2)C(=O)NNS(=O)(=O)c2ccc(C)cc2)cc1`, the GI50 is > 100 µM (inactive) in experiment [1]; > 100 µM (inactive) in experiment [8]; > 100 µM (inactive) in experiment [2]; > 100 µM (inactive) in experiment [3]; > 100 µM (inactive) in experiment [4]; 18.2 µM (inactive) in experiment [5].

Take `O=C(OCCN=C1c2ccccc2CCc2ccccc21)c1ccccc1`: the GI50 in experiment [6] and in experiment [7] was > 100 µM (inactive) in each case.

Take `CS/C1=C(\c2ccc(C)cc2)N(c2ccccc2)C(=O)C(=O)N(c2ccccc2)/C(c2ccc(C)cc2)=C(/SC)SS1`: the GI50 in experiment [7] is > 100 µM (inactive).

In the case of `CN(C)/C=C/c1nnnn1-c1ccc(I)cc1`, the GI50 is 22.8 µM (inactive) in experiment [6] and 16.6 µM (inactive) in experiment [7].

As for `CCOC(=O)/C(=C/c1ccco1)P(=O)(OCC)OCC`, the GI50 in experiment [1], in experiment [8], in experiment [3] and in experiment [4] was > 100 µM (inactive) in each case.

Turning to `CC(C)Oc1c(O)c2c3c(oc(=O)n3C=CC2c2ccccc2F)c1OC(C)C` (stereo unspecified), the GI50 in experiment [7] was 27.7 µM (inactive).

Regarding `O=C1c2ccccc2C2(O)NC(=S)N(c3ccccc3)C12O` (stereo unspecified), the GI50 in experiment [1], in experiment [8], in experiment [2], in experiment [3] and in experiment [4] was > 100 µM (inactive) each time.

As to `COC(=O)C1CC2CC1C1C2SC(F)(F)C1(F)F` (stereo unspecified), the GI50 in experiment [7] is > 100 µM (inactive).

`CC[C@@]12CCC(=S)N(CCSc3ccccc3)[C@@H]1c1c(n(S(=O)(=O)c3ccc(OC)cc3)c3ccccc13)CC2`: the values for the GI50 in experiment [6] and in experiment [7] were 48.1 µM (inactive) and > 100 µM (inactive), respectively.

Consider `[O-]/[N+](=N/c1ncc(-c2ccccc2)cn1)c1ncc(-c2ccccc2)cn1`, for which the GI50 in experiment [7] is > 100 µM (inactive).

In the case of `CSC1=N/C(=C\c2ccc(C)cc2)C(=O)N1CN1CCCCC1`, in experiment [7], the GI50 was > 100 µM (inactive).

With `CSc1c(C#N)c(=O)n(N)c2[nH]nc(C)c12`, the GI50 in experiment [6] and in experiment [7] was > 100 µM (inactive) throughout.

In the case of `Cc1nc(O)nc2c1C(NCCCN(C)C)c1cc(Cl)ccc1N2` (stereo unspecified), the GI50 in experiment [1] was 16.9 µM (inactive); in experiment [8], 16.6 µM (inactive); in experiment [2] it was 12 µM (inactive); in experiment [4], 15.3 µM (inactive); in experiment [5], 12.7 µM (inactive).

In the case of `COC(=O)CNCC1OC2OC(C)(C)OC2C1N=[N+]=[N-]` (stereo unspecified), the GI50 in experiment [6] is > 100 µM (inactive).

Regarding `CSc1nncc2[nH]c(C)nc12`, the GI50 in experiment [6] and in experiment [7] was > 100 µM (inactive) each time.

As to `O=C1OC(c2ccco2)=N/C1=C\c1ccc(Cl)c(Cl)c1`, the GI50 in experiment [6] and in experiment [7] was > 100 µM (inactive) throughout.

`CCCCCC(/C=C/[C@@H]1CC(=O)C[C@H]1O[Si](C)(C)C(C)(C)C)OCOCCOC` (stereo partly specified): the figures for the GI50 in experiment [6] and in experiment [7] were 3.26 µM (inactive) and 4.48 µM (inactive), respectively.

Take `CC[C@@H]1CC[C@@H]2[C@H](CC[C@]3(C)[C@@H](OC(C)=O)CC[C@@H]23)[C@H]1COC(C)=O`: the values for the GI50 in experiment [6] and in experiment [7] were 32.1 µM (inactive) and 20 µM (inactive), respectively.

For `O=c1c2cccnc2[nH]c2ccc3cn[nH]c3c12`, the GI50 in experiment [6] is > 10 µM (inactive); in experiment [7] it was 8.53 µM (inactive).

Turning to `COc1ccc(C(=O)N=C2N(c3ccccc3)C(=N/c3ccccc3)/C(=N\c3ccccc3)N2c2ccccc2)cc1`, the results for the GI50 in experiment [6] and in experiment [7] were 13.2 µM (inactive) and > 62.8 µM (inactive), respectively.

On to `O=C(O)CC(O)(C(=O)O)C(O)C(=O)O` (stereo unspecified), for which the GI50 in experiment [6] and in experiment [7] was > 1000 µM (inactive) each time.

In the case of `CCCCCCCCC/C=C1\CC(CO)(COC(=O)c2ccccc2)OC1=O` (stereo unspecified), the results for the GI50 in experiment [6] and in experiment [7] were 21.8 µM (inactive) and 19.3 µM (inactive), respectively.

For the compound `CC(CC(C)[C@H]1CCC2[C@H]3C(CC[C@@]21C)[C@@]1(C)CCC(O)C[C@H]1C[C@@H]3O)C(=O)O` (stereo partly specified), the GI50 in experiment [6] and in experiment [7] was > 100 µM (inactive) in each case.

Consider `c1ccc2c(c1)[nH]c1c2cc[n+]2cc3c(cc12)CCCC3`, for which the GI50 in experiment [6] was 2.76 µM (inactive); in experiment [7], 2 µM (inactive).
